{"source": "patent US7652024B2", "about": "“Acylated spiropiperidine derivatives as melanocortin-4 receptor modulators” (Merck Sharp & Dohme Corp., priority 2005, dated 2010)", "origin": "cited, not measured here", "test_system": "erectile dysfunction patients", "data": [{"smiles": "CCCc1nn(C)c2c(=O)[nH]c(-c3cc(S(=O)(=O)N4CCN(C)CC4)ccc3OCC)nc12", "note": "[Sildenafil, sildenafil]", "values": [{"measurement": "effective in share of patients", "value": "about 70%"}]}]}
